From ChEMBL document CHEMBL1649287, “Postantibiotic effect of ceftaroline against gram-positive organisms” (2009)
In brackets after ≈: the same amount, converted by molar mass.

Experiments:
Assay type in all cases: functional
Staphylococcus aureus [1] = test: Antimicrobial activity against methicillin-resistant, vancomycin-intermediate Staphylococcus aureus 510 assessed as time required to induce post antibiotic sub-MIC effect at 0.2 times MIC after 1 hr by plate counting method; conditions: Staphylococcus aureus, 510, 1 h
Staphylococcus aureus [2] = test: Antimicrobial activity against methicillin-resistant, vancomycin-resistant Staphylococcus aureus 770 assessed as time required to induce sub-MIC effect at 0.3 times MIC after 1 hr by plate counting method; conditions: Staphylococcus aureus, 770, 1 h
Staphylococcus aureus [3] = test: Antimicrobial activity against methicillin-resistant, vancomycin-intermediate Staphylococcus aureus 510 assessed as time required to induce sub-MIC effect at 0.3 times MIC after 1 hr by plate counting method; conditions: Staphylococcus aureus, 510, 1 h
Enterococcus faecalis [4] = test: Antimicrobial activity against vancomycin-resistant Enterococcus faecalis 266 assessed as time required to induce sub-MIC effect at 0.3 times MIC after 1 hr by plate counting method; conditions: Enterococcus faecalis, 266, 1 h
Enterococcus faecalis [5] = test: Antimicrobial activity against vancomycin-resistant Enterococcus faecalis 609 assessed as time required to induce sub-MIC effect at 0.3 times MIC after 1 hr by plate counting method; conditions: Enterococcus faecalis, 609, 1 h
Staphylococcus aureus [6] = test: Antimicrobial activity against methicillin-susceptible, vancomycin-susceptible Staphylococcus aureus ATCC 29213 assessed as time required to induce post antibiotic sub-MIC effect at 0.3 times MIC after 1 hr by plate counting method; conditions: ATCC 29213, 1 h
Enterococcus faecalis [7] = test: Antimicrobial activity against vancomycin-sensitive Enterococcus faecalis ATCC 29212 assessed as time required to induce post antibiotic sub-MIC effect at 0.3 times MIC after 1 hr by plate counting method; conditions: ATCC 29212, 1 h
Staphylococcus aureus [8] = test: Antimicrobial activity against methicillin-susceptible, vancomycin-susceptible Staphylococcus aureus ATCC 29213 assessed as time required to induce sub-MIC effect at 0.4 times MIC after 1 hr by plate counting method; conditions: ATCC 29213, 1 h
Enterococcus faecalis [9] = test: Antimicrobial activity against vancomycin-sensitive Enterococcus faecalis 20 assessed as time required to induce sub-MIC effect at 0.4 times MIC after 1 hr by plate counting method; conditions: Enterococcus faecalis, 20, 1 h
Enterococcus faecalis [10] = test: Antimicrobial activity against vancomycin-resistant Enterococcus faecalis 609 assessed as time required to induce sub-MIC effect at 0.4 times MIC after 1 hr by plate counting method; conditions: Enterococcus faecalis, 609, 1 h
Staphylococcus aureus [11] = test: Antimicrobial activity against methicillin-resistant, vancomycin-hetroresistant Staphylococcus aureus 618 by microdilution method
Staphylococcus aureus [12] = test: Antimicrobial activity against methicillin-susceptible, vancomycin-susceptible Staphylococcus aureus sox1 assessed as post antibiotic effect at 10 times MIC after 1 hr by plate counting method; conditions: sox1, 1 h
Enterococcus faecalis [13] = test: Antimicrobial activity against vancomycin-sensitive Enterococcus faecalis 20 assessed as post antibiotic effect at 10 times MIC after 1 hr by plate counting method; conditions: Enterococcus faecalis, 20, 1 h

Structure (SMILES): CCO/N=C(\C(=O)N[C@@H]1C(=O)N2C(C(=O)[O-])=C(Sc3nc(-c4cc[n+](C)cc4)cs3)CS[C@H]12)c1nsc(NP(=O)(O)O)n1 [CEFTAROLINE FOSAMIL]
- time (Staphylococcus aureus [1]): 5.4 h
- time (Staphylococcus aureus [2]): 0.5 h
- time (Staphylococcus aureus [3]): 0.7 h
- time (Enterococcus faecalis [4]): 1.8 h
- time (Enterococcus faecalis [5]): 1.4 h
- PAE (Staphylococcus aureus [6]): 4.5 h
- PAE (Enterococcus faecalis [7]): > 10.6 h
- PAE (Staphylococcus aureus [8]): 2.8 h
- PAE (Enterococcus faecalis [9]): 3.6 h
- time (Enterococcus faecalis [10]): 2.2 h
- MIC (Staphylococcus aureus [11]): 2 µg/mL (≈ 2.92 µM)
- PAE (Staphylococcus aureus [12]): 0.8 h
- PAE (Enterococcus faecalis [13]): 0.5 h
